A melting point compilation (Tetko et al.; mined from patent text by program, amines drawn as free bases though some values may be those of a salt)

Structure (SMILES)	melting point [°C]
CCC1(O)C(=O)OCc2c1cc1n(c2=O)Cc2cc3cc(O)ccc3nc2-1 (stereo not given)	230 to 235
CCc1nc2c(cnn2CC)c(NC2CCOCC2)c1CNC(=O)c1cccc(C(=O)NCc2ccc(F)c(-c3cccc(CN4CC5CC4CN5)c3)c2)c1 (stereo not given)	129 to 133
Cc1ccc2c(=O)c3cc(C(F)(F)F)ccc3sc2c1	174 to 178
COc1cc(C(O)c2ccccc2S(=O)(=O)Nc2ccccc2C)cc2c1OCO2 (stereo not given)	155 to 158
COc1c(O)cc2c(c1Sc1ccccc1)CCN(C)CC2	161 to 162
O=[N+]([O-])C(=Cc1cccs1)C1=NCCN1Cc1ccc(Cl)nc1	189 to 190
CCCCCCCCN1C(=O)C2C3CCC(O3)C2C1=O (stereo not given)	36 to 37
O=C(O)CCc1conc1-c1ccc(F)c(Cl)c1	140 to 141
Cn1ncnc1COc1nn2c(-c3c(F)cccc3F)nncc2c1-c1ccccc1F	163
CC(=NNC(=O)c1cccc(C)c1)c1cc(Cl)cc(Cl)c1O	221 to 223
N#CCc1cc(-c2ccc(Cl)cc2)n(-c2ccc(S(N)(=O)=O)cc2)n1	212 to 214
O=C(c1cc(Cl)cc(Cl)c1)N1CCc2cc(S(=O)(=O)N3CC(c4ccccc4)NC3=O)ccc21 (stereo not given)	236
Cc1nc(N2CCN(Cc3ccc(C(F)(F)F)nc3)C2=O)sc1C(N)=O	225 to 228
CCONC(CC)=C1C(=O)CC(CCSc2ccc(Cl)cc2)CC1=O (stereo not given)	42 to 43
CC(C)c1nc(C#N)c(C#N)[nH]1	146 to 149
CC(C)CCCC(C)C1CCC2C3CC=C4CC(N=[N+]=[N-])CCC4(C)C3CCC12C (stereo not given)	84 to 86
CCOC(=O)CC(C#N)(CC(=O)OCC)c1ccc(F)cc1	68 to 70
CCN1CC(NC(=O)c2cc(Cl)c(N)cc2OC)C=N1 (stereo not given)	132 to 134
CCOc1ccc(-c2ccc(-c3ccc(C4CCC(c5c(F)cccc5F)=N4)cc3)cc2)s1 (stereo not given)	128 to 134
CNC1=NN(c2ccc(Cl)c(Cl)c2)CC1	68 to 70
CCc1cn(-c2ncccn2)c2c1C(=O)CC(C)(C)C2	111 to 114
CCNc1nc(Cl)ccc1C(=O)O	158 to 160
CNC(=O)CS(=O)(=O)Nc1c(F)cccc1Oc1nc(OC)cc(OC)n1	193 to 198
O=C(Nc1ccccc1)O[C@@H]1CN=C(c2ccoc2)O[C@H]1c1ccccc1 (racemic)	130
Cc1cc(O)n2nc(CN=[N+]=[N-])nc2n1	193 to 194

Structure (SMILES)	melting point [°C]
COC(=O)c1cccc2nc(SCCCCCC(=O)Nc3c(SC)cc(C)nc3SC)oc12	141 to 142
COc1cc2nc(S(=O)Cc3nccc(N(C)C)c3F)[nH]c2cc1OC (stereo not given)	208 to 210
CC1(C)COc2ccc(Cl)cc2C(O)(c2ccccn2)C1 (stereo not given)	118
CCN(C)C(=N)N[N+](=O)[O-]	124 to 125
CC(=O)Nc1ccc(-c2ccc3nc(-c4cccnc4N)n(-c4ccc(CN)cc4)c3n2)cc1	245 to 248
Cc1cccc(-c2nc(NC(=O)c3ccc(C(=O)O)cc3)sc2-c2ccncn2)c1	380 to 381
CC(C)C(=O)N(C)C1CN(C(=O)Nc2ccc(C(F)(F)F)cc2)N=C1c1ccc(Cl)cc1 (stereo not given)	180 to 182
CC(C)(NC(=O)OCc1ccccc1)C(=O)Nc1ccc([N+](=O)[O-])cc1C(=O)c1ccccc1F	153 to 155
CC(C)N(Cc1ccc2cc(NC(=O)c3ccc(-c4ccc(Cl)cc4)cc3)ccc2c1)C(C)C	246 to 250
COc1cc2nc(S(=O)Cc3cccn4ccnc34)[nH]c2cc1OC (stereo not given)	195 to 196
COc1cc2c(cc1O)CCN(Cc1cc(OC)c(OC)cc1OC)C2	152 to 153
O=[N+]([O-])c1ccccc1SN(CCO)CCO	82 to 86
CSc1sc(C=O)cc1C=O	135 to 137
Cc1ccc(C)c(OCc2ccccc2C(=O)O)c1	162 to 163
CC(C)(C)OC(=O)n1nc(-c2cc3ccc(OCCCN4CCCC(O)C4)cc3n2C(=O)OC(C)(C)C)c2sc(-c3ccccc3)cc21 (stereo not given)	213 to 216
O=c1ccn(-c2cccc(Oc3nc4ccccc4[nH]3)c2)nc1-c1ccnn1-c1ccccc1	149 to 150
CCOC(=O)C(C)ON1CCNC1=Nc1c(Cl)cccc1Cl (stereo not given)	79 to 80
CCOC(=O)CNC(=O)N(C(=O)NCC(=O)OCC)c1ccc(C(=O)/C=C/c2cc(OC)c(OC)c(-c3cccs3)c2)cc1	83 to 86
COc1ccc(Oc2nc(Nc3cccc(C(=O)O)c3)nc(Oc3ccc(C=O)cc3OC)n2)cc1	180 to 182
COC(=O)Nc1nc2ccc(Sc3ccccc3)cn2c1CN1CCOCC1	158 to 182
CC(=O)OC12Oc3cc(C(C)C)ccc3C1(OC(C)=O)C(=O)c1ccccc12 (stereo not given)	138 to 140
COc1cc(C)nc(NCSc2ccc(Cl)cc2)n1	78 to 82
Nc1ccc(-c2noc(-c3cnn4c(C(F)(F)F)cc(-c5ccc(C(F)(F)F)cc5)nc34)n2)cn1	257
CCCCCCCCCCCCCCOC(=O)CS(=O)(=O)Nc1c(C(C)C)cccc1C(C)C	53 to 55
NC(=O)C1CCN(c2cc(-c3ccc(Cl)cc3)nc3ccc(Cl)cc23)CC1	272 to 275

Structure (SMILES)	melting point [°C]
CCNC(=O)Nc1nc2cc(-c3cccnc3)cc(C(=O)NC)n2n1	> 300
CC(=O)Oc1c(C)c(C)c2c(c1C)CCC(O)O2 (stereo not given)	115 to 120
COC(=O)c1cc(N2C(=O)C3=C(CCCC3)C2=O)ccc1Cl	113 to 115
COc1cc2c(cc1OC)C(C(CO)CO)N(C(=O)Nc1ccccc1)CC2 (stereo not given)	191 to 192
CC1CC2C3CCC4=CC(=O)CCC4(C)C3(F)C(O)CC2(C)C1C(=O)CC#N (stereo not given)	224
CCOC(=O)/C=C/C(=O)N1C[C@H](NC(=O)OCc2ccccc2)C1=O	68
OCCCCCCCCOc1ccc2ccccc2c1	67 to 69
COC(=O)c1cc2nc(-c3ccccc3)nn2cc1F	162 to 168
CCOC(=O)c1cc(Br)cc2c(=O)cc(-c3cccc(OCc4nc5ccccc5s4)c3)oc12	250 to 251
CC(=O)Nc1ccc2c3c1c(=O)c(C(=O)O)cn3C1CCCCC21 (stereo not given)	187 to 190
CON(C)C(=O)[C@@H](CO)NC(=O)OC(C)(C)C	115 to 116
CCCNC(=O)N=c1ccn(-c2ccccc2)nc1	156 to 157
c1ccc2sc(=NCCN3CCOCC3)sc2c1	75 to 76
CC(C)(C)OC(=O)N1CCc2c(n(CC(=O)Nc3ccccc3)c3cc(Cl)c(Cl)cc23)CC1	172
O=C1CCC(N2Cc3cc(CNC(=O)Nc4ccc(Br)cc4)ccc3C2=O)C(=O)N1 (stereo not given)	278 to 280
Cc1occ(-c2ccccc2F)c1C(=O)Nc1cccc(CO)c1	163 to 164
COC(=O)/C(=C/C=C/c1cc2cc(OC)ccc2[nH]1)OC	150 to 151
O=S1(=O)NCN(C2CC2)c2cc(Br)c(C(F)(F)F)cc21	186 to 189
CN(C)c1nccc(-c2cccnc2)n1	230 to 241
O=C(O)c1cccc2cc(Oc3cc(Cl)ncn3)ccc12	194 to 195
CC1(C)OCC(CNc2c([N+](=O)[O-])cnc3cc(OCc4ccccc4)ccc23)O1 (stereo not given)	154 to 155
Cc1ccc(C#Cc2ccc(NC(=O)OC(C)(C)C)c([N+](=O)[O-])c2)cc1	164 to 165
CN(C=O)C1CCC(=O)c2ccccc21 (single isomer, unassigned; (+))	92 to 93
CC(C)c1ccccc1N=C1NCCS1	76 to 77
CCC(=O)Nc1onc2c1c(=O)n(C)c(=O)n2C	150 to 152

Structure (SMILES)	melting point [°C]
O=Cc1ncc2n1-c1ccc(Cl)cc1C(c1ccccc1F)=NC2	182 to 183
CS(=O)CC(=O)Nc1c(C(=O)c2ccccc2)[nH]c2cc(Cl)ccc12 (stereo not given)	191 to 192
O=Cc1csc(NC2CC2)n1	124 to 127
CC(=O)Oc1cc(N2C(=O)CC(SC3CCCCC3)C2=O)ccc1C(=O)O (stereo not given)	155 to 158
O=C(CC(NC(=O)COCc1ccccc1)c1ccccc1)Nc1n[nH]c(=S)s1 (stereo not given)	190 to 191
CCCNC1CCC(O)CC1 (stereo not given)	20
O=C(O)c1cccc(CS(=O)(=O)CCO)c1	67 to 70
CC(C)(C)OC(=O)NC(=N)c1ccc(C(=O)O)cc1	> 200
COc1ncccc1-c1cccn2nc(Cl)nc12	218 to 219
ON=C(c1ccncc1)c1ccc(F)cc1F	155 to 200
O=[N+]([O-])c1ccc(Oc2ccc(C3(c4ccc(Oc5ccc([N+](=O)[O-])c(O)c5)cc4)C4CC5CC(C4)CC3C5)cc2)cc1O	248 to 250
O=c1[nH]c2sc3ccc(Br)cc3c2[nH]c1=O	> 320
CC(C)(C)C(=O)c1c[nH]c2ncc(N3CCc4ccccc4C3=O)nc12	113 to 115
O=C1c2cc([N+](=O)[O-])cc3c(N4CCCC4)c(Cl)cc(c23)C(=O)N1O	209 to 210
COC(=O)c1ccc(C(=O)Nc2ccc3c(c2)C(C)(C)CCC3(C)C)cc1	211
Cn1ccnc1SCOC(=O)C(C)(C)C	128 to 132
Cc1c(NC(=O)c2ccc(OC[C@@H]3CCCO3)cc2)ccc2cc(CN[C@H](C)C(C)(C)C)cnc12	140 to 141
CC(=Cc1cnc2nc(N)nc(N)c2c1)c1ccc(C(=O)OC(C)(C)C)cc1	> 300
Cc1c(C)c2c(c(C)c1N)C(c1ccc(C(C)C)cc1)CO2 (stereo not given)	171 to 173
Clc1cc(Nc2ccccc2)c2nc[nH]c2n1	> 300
CN(C)C(CNc1c(C#N)cnn2cccc12)c1ccco1 (stereo not given)	107
[N-]=[N+]=NCC1Cc2c(ccc3c2CCC(=O)N3)O1 (stereo not given)	157 to 158
Cc1cc(C(F)(F)F)nc(N(C(N)=O)c2ccccc2C(F)(F)F)n1	150 to 153
CC(=O)C(=NNc1ccc(Cl)cc1)Sc1ccc(Cl)cc1	164 to 167
CN(C)S(=O)(=O)c1ccc(C#N)c(C(F)(F)F)c1	133 to 136
